Earlier results on one compound are cited in patent US20260183312A1, “A ROOM-TEMPERATURE STABLE, UNBUFFERED FORMULATION OF ROCURONIUM BROMIDE INJECTION FOR INTRAVENOUS ADMINISTRATION AND A METHOD THEREOF” (MAIVA PHARMA PRIVATE LIMITED, priority 2023, published 2026).

Each structure is given as a SMILES string.

On to `C=CC[N+]1([C@H]2C[C@H]3[C@@H]4CC[C@H]5C[C@H](O)[C@@H](N6CCOCC6)C[C@]5(C)[C@H]4CC[C@]3(C)[C@H]2OC(C)=O)CCCC1` [Rocuronium, Rocuronium bromide], for which the “Patients with severe burning pain on administration” value is on record as “up to 80%”.
